Laboratory results as given in the supplement of paper PMC10883282.

How the values were obtained:
Assay in all cases: relative viability vs DMSO control (72 h) (fraction); higher = more viable cells
[1] = system: SW872
Procedure, shortened: (§1)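 A 5 µM positive control and 0.1% DMSO vehicle ran alongside sarcoma cell lines seeded in 384-well plates to reach 80–90% confluence. Serially diluted compound, 2.5 µl from source plates of 10 mM to 0.0002 mM, was added after 24 h, and the plates were held 72 h at 37 °C, 5% CO2. Relative viability was worked out from ATPLite readings as percent growth averaged over up to triplicate wells. The values were rescaled so that 1 is full and 0 is none.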

[2] = system: VA-ES-BJ
Procedure, shortened: as §1

[3] = system: SW1353
Procedure, shortened: as §1

[4] = system: A204
Procedure, shortened: as §1

[5] = system: SK-LMS-1
Procedure, shortened: as §1

[6] = system: G401
Procedure, shortened: as §1

[7] = system: KHOS-240S
Procedure, shortened: as §1

[8] = system: RD
Procedure, shortened: as §1

[9] = system: HS729
Procedure, shortened: as §1

[10] = system: SW982
Procedure, shortened: as §1

[11] = system: MES-SA
Procedure, shortened: as §1

[12] = system: SK-ES-1
Procedure, shortened: as §1

Cc1cn(-c2cc(NC(=O)c3ccc(C)c(Nc4nccc(-c5cccnc5)n4)c3)cc(C(F)(F)F)c2)cn1 [Nilotinib]
Settings	relative viability
[1], 0.00017 µM	0.959
[1], 0.00051 µM	0.91
[1], 0.00152 µM	0.924
[1], 0.00457 µM	0.926
[1], 0.01372 µM	0.948
[1], 0.04115 µM	0.971
[1], 0.1235 µM	1.01
[1], 0.3704 µM	0.999
[1], 1.111 µM	0.94
[1], 3.333 µM	0.796
[1], 10 µM	0.766
[2], 0.00017 µM	1.05
[2], 0.00051 µM	1.04
[2], 0.00152 µM	1.04
[2], 0.00457 µM	1.05
[2], 0.01372 µM	1.05
[2], 0.04115 µM	1.06
[2], 0.1235 µM	1.08
[2], 0.3704 µM	1.1
[2], 1.111 µM	1.1
[2], 3.333 µM	0.989
[2], 10 µM	0.679
[3], 0.00017 µM	0.933
[3], 0.00051 µM	0.951
[3], 0.00152 µM	0.935
[3], 0.00457 µM	0.967
[3], 0.01372 µM	0.969
[3], 0.04115 µM	1.01
[3], 0.1235 µM	1.05
[3], 0.3704 µM	1.09
[3], 1.111 µM	1.08
[3], 3.333 µM	0.994
[3], 10 µM	0.846
[4], 0.00017 µM	1
[4], 0.00051 µM	0.979
[4], 0.00152 µM	1.03
[4], 0.00457 µM	1.04
[4], 0.01372 µM	1.05
[4], 0.04115 µM	1.074
[4], 0.1235 µM	1.01
[4], 0.3704 µM	0.662
[4], 1.111 µM	0.421
[4], 3.333 µM	0.34
[4], 10 µM	0.345
[5], 0.00017 µM	0.953
[5], 0.00051 µM	0.983
[5], 0.00152 µM	1.01
[5], 0.00457 µM	1.03
[5], 0.01372 µM	1.02
[5], 0.04115 µM	1.05
[5], 0.1235 µM	1.11
[5], 0.3704 µM	1.12
[5], 1.111 µM	1.16
[5], 3.333 µM	0.978
[5], 10 µM	0.965
[6], 0.00017 µM	0.944
[6], 0.00051 µM	0.963
[6], 0.00152 µM	0.968
[6], 0.00457 µM	0.963
[6], 0.01372 µM	0.979
[6], 0.04115 µM	0.982
[6], 0.1235 µM	0.995
[6], 0.3704 µM	0.923
[6], 1.111 µM	0.865
[6], 3.333 µM	0.795
[6], 10 µM	0.737
[7], 0.00017 µM	1.04
[7], 0.00051 µM	1.02
[7], 0.00152 µM	1.03
[7], 0.00457 µM	1.02
[7], 0.01372 µM	1.03
[7], 0.04115 µM	1.01
[7], 0.1235 µM	0.999
[7], 0.3704 µM	0.998
[7], 1.111 µM	0.907
[7], 3.333 µM	0.847
[7], 10 µM	0.658
[8], 0.00017 µM	1.06
[8], 0.00051 µM	1.07
[8], 0.00152 µM	1.09
[8], 0.00457 µM	1.08
[8], 0.01372 µM	1.11
[8], 0.04115 µM	1.12
[8], 0.1235 µM	1.11
[8], 0.3704 µM	1.07
[8], 1.111 µM	0.898
[8], 3.333 µM	0.731
[8], 10 µM	0.6531
[9], 0.00017 µM	0.914
[9], 0.00051 µM	0.914
[9], 0.00152 µM	0.92
[9], 0.00457 µM	0.915
[9], 0.01372 µM	0.922
[9], 0.04115 µM	0.907
[9], 0.1235 µM	0.848
[9], 0.3704 µM	0.792
[9], 1.111 µM	0.766
[9], 3.333 µM	0.656
[9], 10 µM	0.737
[10], 0.00017 µM	0.977
[10], 0.00051 µM	0.983
[10], 0.00152 µM	0.957
[10], 0.00457 µM	0.974
[10], 0.01372 µM	0.988
[10], 0.04115 µM	0.994
[10], 0.1235 µM	0.987
[10], 0.3704 µM	0.998
[10], 1.111 µM	0.973
[10], 3.333 µM	0.902
[10], 10 µM	0.727
[11], 0.00017 µM	0.882
[11], 0.00051 µM	0.867
[11], 0.00152 µM	0.874
[11], 0.00457 µM	0.875
[11], 0.01372 µM	0.88
[11], 0.04115 µM	0.94
[11], 0.1235 µM	0.938
[11], 0.3704 µM	0.93
[11], 1.111 µM	0.891
[11], 3.333 µM	0.659
[11], 10 µM	0.594
[12], 0.00017 µM	0.966
[12], 0.00051 µM	0.958
[12], 0.00152 µM	0.951
[12], 0.00457 µM	0.919
[12], 0.01372 µM	0.954
[12], 0.04115 µM	0.975
[12], 0.1235 µM	0.997
[12], 0.3704 µM	0.908
[12], 1.111 µM	0.788
[12], 3.333 µM	0.55
[12], 10 µM	0.484
